Measurements: patent US20230117034A1, “PYRAZOLOTRIAZINES” (Bayer Aktiengesellschaft, priority 2019, published 2023)

Legend:
[1] = molecular target: T1, CDK12 (nuclear staining in CAL-120 cells) (Homo sapiens, UniProt Q9NYV4); experiment: CDK12 nuclear protein level: immunofluorescence/high content analysis (CAL-120); assay type: cell-based; conditions: for DC50: CAL-120 cells, 24 h, immunofluorescence, 50% reduction of nuclear CDK12 staining intensity, median, read-out: CDK12 degradation IF, DC50- [mol/l] (median); for (IC50 CDK12 high ATP) to (Degradation DC50 CDK12) ratio: ratio of IC50 CDK12 high ATP kinase assay to DC50 CDK12 degradation (IF, CAL-120)
T1 construct: endogenous in cells; host or cells: CAL-120 human breast cancer cells (DSMZ ACC 459)
T1 sequence (Q9NYV4 whole entry): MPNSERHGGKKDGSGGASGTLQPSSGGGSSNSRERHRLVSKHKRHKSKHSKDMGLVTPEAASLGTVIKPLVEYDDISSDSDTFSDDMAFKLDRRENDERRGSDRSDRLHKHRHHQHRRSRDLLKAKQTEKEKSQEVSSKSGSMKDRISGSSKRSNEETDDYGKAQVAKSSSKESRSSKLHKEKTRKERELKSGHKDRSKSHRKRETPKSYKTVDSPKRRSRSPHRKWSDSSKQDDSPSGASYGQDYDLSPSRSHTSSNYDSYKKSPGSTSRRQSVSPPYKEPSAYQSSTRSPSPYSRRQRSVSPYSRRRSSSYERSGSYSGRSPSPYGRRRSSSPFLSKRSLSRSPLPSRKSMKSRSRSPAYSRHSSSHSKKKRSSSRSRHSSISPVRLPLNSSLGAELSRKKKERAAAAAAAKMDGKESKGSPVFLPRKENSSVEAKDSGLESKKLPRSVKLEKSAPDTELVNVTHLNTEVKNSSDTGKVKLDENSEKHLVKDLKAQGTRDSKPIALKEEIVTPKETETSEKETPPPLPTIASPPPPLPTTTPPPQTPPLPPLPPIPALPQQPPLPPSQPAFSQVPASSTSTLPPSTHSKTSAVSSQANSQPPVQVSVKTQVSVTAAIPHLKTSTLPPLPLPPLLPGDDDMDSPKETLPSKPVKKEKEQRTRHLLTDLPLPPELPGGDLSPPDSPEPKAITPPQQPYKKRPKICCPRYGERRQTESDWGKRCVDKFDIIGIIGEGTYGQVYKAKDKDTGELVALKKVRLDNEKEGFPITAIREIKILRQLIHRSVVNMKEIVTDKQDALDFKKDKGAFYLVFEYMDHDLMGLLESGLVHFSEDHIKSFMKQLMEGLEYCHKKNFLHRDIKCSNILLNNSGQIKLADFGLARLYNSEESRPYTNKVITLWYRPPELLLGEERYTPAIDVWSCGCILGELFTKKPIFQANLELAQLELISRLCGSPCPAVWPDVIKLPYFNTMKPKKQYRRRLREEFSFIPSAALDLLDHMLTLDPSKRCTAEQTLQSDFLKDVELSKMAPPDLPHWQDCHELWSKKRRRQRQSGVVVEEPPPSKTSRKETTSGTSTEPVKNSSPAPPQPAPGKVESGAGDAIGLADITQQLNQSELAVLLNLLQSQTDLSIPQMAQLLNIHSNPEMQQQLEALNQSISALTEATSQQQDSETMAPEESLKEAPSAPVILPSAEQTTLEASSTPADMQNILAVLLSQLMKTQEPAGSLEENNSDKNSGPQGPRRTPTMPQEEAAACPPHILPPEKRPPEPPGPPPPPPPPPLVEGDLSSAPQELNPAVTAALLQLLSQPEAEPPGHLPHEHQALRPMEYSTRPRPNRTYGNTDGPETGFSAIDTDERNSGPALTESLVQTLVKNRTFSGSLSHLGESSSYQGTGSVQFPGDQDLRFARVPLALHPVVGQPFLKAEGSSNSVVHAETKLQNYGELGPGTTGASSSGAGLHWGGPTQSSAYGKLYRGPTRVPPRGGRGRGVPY
T1 sequence (O75909 whole entry partner): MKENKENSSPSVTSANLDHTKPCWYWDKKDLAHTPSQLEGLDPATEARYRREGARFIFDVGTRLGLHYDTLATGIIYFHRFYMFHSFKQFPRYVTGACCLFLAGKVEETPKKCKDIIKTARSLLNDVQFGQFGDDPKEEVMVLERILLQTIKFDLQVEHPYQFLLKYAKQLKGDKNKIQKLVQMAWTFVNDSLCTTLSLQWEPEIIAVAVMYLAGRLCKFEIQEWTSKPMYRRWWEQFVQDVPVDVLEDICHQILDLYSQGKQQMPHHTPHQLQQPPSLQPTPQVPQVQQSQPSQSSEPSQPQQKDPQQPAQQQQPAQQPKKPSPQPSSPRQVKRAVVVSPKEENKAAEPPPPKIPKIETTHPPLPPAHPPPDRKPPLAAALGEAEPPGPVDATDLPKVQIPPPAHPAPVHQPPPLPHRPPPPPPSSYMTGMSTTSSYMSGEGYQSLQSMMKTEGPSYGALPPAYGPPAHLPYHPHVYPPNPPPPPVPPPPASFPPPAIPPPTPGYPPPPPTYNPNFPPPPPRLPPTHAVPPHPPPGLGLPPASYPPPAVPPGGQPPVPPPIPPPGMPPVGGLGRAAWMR
Protocol: In the context of the present invention, the term “DC50 CDK12” refers to the DC50 values obtained according to the assay described in this section (7) herein below, i.e. the DC50 values for the degradation of CDK12.
Plates are then incubated for 24 h at 37° C. in an humidified incubator and fixed with 4% PFA for 10 min. […] Nuclear and cytoplasmic intensity as well as the nuclear/cytoplasmic intensity ratio is determined by automated image analysis using custom generated scripts (MetaXpress). Data is then transferred to Genedata Screener software, normalized to DMSO and control and DC50 values (degrading concentration to achieve 50% reduction of nuclear CDK12 staining intensity relative to controls) are reported.

CDK9/CycT1 = molecular target: T2, CDK9/CycT1 (Homo sapiens, UniProt P50750); experiment: CDK9/CycT1 high ATP kinase assay (TR-FRET, 2 mM ATP); assay type: biochemical; conditions: 2 mM ATP (high ATP); median; read-out: CDK9/CyclinT1, 2 mM ATP (high ATP), IC50 (median)
T2 construct: Recombinant full-length His-tagged human CDK9 and CycT1; purchased Life Technologies PV4131; host or cells: insect cells
T2 sequence (P50750 whole entry): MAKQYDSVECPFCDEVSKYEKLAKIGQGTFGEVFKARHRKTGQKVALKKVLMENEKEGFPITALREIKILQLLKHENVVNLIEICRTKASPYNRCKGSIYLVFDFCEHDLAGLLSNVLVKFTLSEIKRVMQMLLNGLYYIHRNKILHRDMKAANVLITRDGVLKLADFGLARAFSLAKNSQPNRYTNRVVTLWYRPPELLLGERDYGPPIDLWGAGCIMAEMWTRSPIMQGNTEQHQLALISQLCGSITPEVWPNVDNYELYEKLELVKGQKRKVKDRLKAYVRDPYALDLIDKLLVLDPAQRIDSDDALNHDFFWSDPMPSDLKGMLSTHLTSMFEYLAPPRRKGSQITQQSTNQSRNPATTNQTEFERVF
T2 sequence (O60563 whole entry partner): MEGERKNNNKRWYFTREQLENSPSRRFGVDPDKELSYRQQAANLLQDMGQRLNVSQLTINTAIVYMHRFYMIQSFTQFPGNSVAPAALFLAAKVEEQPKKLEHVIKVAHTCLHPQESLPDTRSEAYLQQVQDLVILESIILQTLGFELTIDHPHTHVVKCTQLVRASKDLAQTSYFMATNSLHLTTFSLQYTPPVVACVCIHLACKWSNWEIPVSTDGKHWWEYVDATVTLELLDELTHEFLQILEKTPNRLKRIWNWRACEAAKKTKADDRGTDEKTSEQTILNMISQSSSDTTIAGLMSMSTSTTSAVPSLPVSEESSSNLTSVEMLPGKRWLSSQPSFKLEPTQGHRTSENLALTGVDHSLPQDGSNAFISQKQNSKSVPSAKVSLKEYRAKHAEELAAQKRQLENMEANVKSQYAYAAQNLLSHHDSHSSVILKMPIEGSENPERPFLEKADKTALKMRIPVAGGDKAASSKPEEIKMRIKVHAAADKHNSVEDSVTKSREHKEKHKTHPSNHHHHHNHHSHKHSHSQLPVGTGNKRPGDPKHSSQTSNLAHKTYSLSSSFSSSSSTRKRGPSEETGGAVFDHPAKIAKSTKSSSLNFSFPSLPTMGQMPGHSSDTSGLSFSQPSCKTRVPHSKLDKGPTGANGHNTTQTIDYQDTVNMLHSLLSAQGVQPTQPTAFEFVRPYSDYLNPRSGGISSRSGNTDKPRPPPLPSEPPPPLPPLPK
Protocol: CDK9/CycT1-inhibitory activity of compounds of the present invention at a high ATP concentration after preincubation of enzyme and test compounds was quantified employing the CDK9/CycT1 TR-FRET assay as described in the following paragraphs.
Recombinant full-length His-tagged human CDK9 and CycT1, expressed in insect cells and purified by Ni-NTA affinity chromatography, were purchased from Life Technologies (Cat. No PV4131). As substrate for the kinase reaction biotinylated peptide biotin-Ttds-[…] (C-terminus in amide form) was used which can be purchased e.g. form the company JERINI peptide technologies (Berlin, Germany).
For the assay 50 nanoL of a 100 fold concentrated solution of the test compound in DMSO was pipetted into either a black low volume 384 well microtiter plate or a black 1536 well microtiter plate (both Greiner Bio-One, Frickenhausen, Germany), 2 microL of a solution of CDK9/CycT1 in aqueous assay buffer [50 millimol/L Tris/HCl pH 8.0, 10 millimol/L MgCl2, 1.0 millimol/L dithiothreitol, 0.1 millimol/L sodium ortho-vanadate, 0.01% (v/v) Nonidet-P40 (Sigma)] were added and the mixture was incubated for 15 min at 22° C. to allow pre-binding of the test compounds to the enzyme before the start of the kinase reaction. […] The concentration of CDK9/CycT1 was adjusted depending of the activity of the enzyme lot and was chosen appropriate to have the assay in the linear range, typical concentrations were in the range of 0.5 microg/ml.
The resulting mixture was incubated 1 h at 22° C. to allow the formation of complex between the phosphorylated biotinylated peptide and the detection reagents. Subsequently the amount of phosphorylated substrate was evaluated by measurement of the resonance energy transfer from the Eu-chelate to the streptavidine-XL. Therefore, the fluorescence emissions at 620 nm and 665 nm after excitation at 350 nm was measured in a TR-FRET reader, e.g. a Pherastar (BMG Labtechnologies, Offenburg, Germany) or a Viewlux (Perkin-Elmer). The ratio of the emissions at 665 nm and at […] was taken as the measure for the amount of phosphorylated substrate.

| Structure (SMILES) | DC50 [1] | (IC50 CDK12 high ATP) to (Degradation DC50 CDK12) ratio [1] | IC50 (CDK9/CycT1) |
| --- | --- | --- | --- |
| CC(C)c1cnn2c(NCc3nc4ccccc4[nH]3)nc(N(C)CC(C)(C)O)nc12 [Example 5, 1-{[4-{[(1H-benzimidazol-2-yl)methyl]amino}-8-(propan-2-yl)pyrazolo[1,5-a][1,3,5]triazin-2-yl](methyl)amino}-2-methylpropan-2-ol] | 11.4 nM | 455 | > 20000 nM |
| CC(C)c1cnn2c(NCc3nc4ccccc4[nH]3)nc(N3CCOC[C@H]3C)nc12 [Example 7, N-[(1H-benzimidazol-2-yl)methyl]-2-[(3R)-3-methylmorpholin-4-yl]-8-(propan-2-yl)pyrazolo[1,5-a][1,3,5]triazin-4-amine] | 63.6 nM | 161 | > 20000 nM |
| CC(C)c1cnn2c(NCc3nc4ccccc4[nH]3)nc(N3CCCOCC3)nc12 [Example 8, N-[(1H-benzimidazol-2-yl)methyl]-2-(1,4-oxazepan-4-yl)-8-(propan-2-yl)pyrazolo[1,5-a][1,3,5]triazin-4-amine] | 20.7 nM | >956 | > 20000 nM |
| CC1(C)CN(c2nc(NCc3nnc(-c4ccccc4)[nH]3)n3ncc(C4CC4)c3n2)CCO1 [Example 94, 8-cyclopropyl-2-(2,2-dimethylmorpholin-4-yl)-N-[(5-phenyl-4H-1,2,4-triazol-3-yl)methyl]pyrazolo[1,5-a][1,3,5]triazin-4-amine] | 25 nM | 352 | 12800 nM |
| Fc1ccccc1-c1cnn2c(NCc3nc4ccccc4[nH]3)nc(N3CCOCC3)nc12 [Example 95, N-[(1H-benzimidazol-2-yl)methyl]-8-(2-fluorophenyl)-2-(morpholin-4-yl)pyrazolo[1,5-a][1,3,5]triazin-4-amine] | 34.3 nM | >584 | > 20000 nM |
| Clc1ccccc1-c1cnc(CNc2nc(N3CCOCC3)nc3c(Br)cnn23)[nH]1 [Example 96, 8-bromo-N-{[5-(2-chlorophenyl)-1H-imidazol-2-yl]methyl}-2-(morpholin-4-yl)pyrazolo[1,5-a][1,3,5]triazin-4-amine] | 5.73 nM | 812 | 9300 nM |
| Cc1ccc(-c2nnc(CNc3nc(N4CCOCC4)nc4c(Br)cnn34)[nH]2)cc1F [Example 98, 8-bromo-N-{[5-(3-fluoro-4-methylphenyl)-4H-1,2,4-triazol-3-yl]methyl}-2-(morpholin-4-yl)pyrazolo[1,5-a][1,3,5]triazin-4-amine] | 38.5 nM | 28 | 953 nM |
| Fc1ccc(-c2nnc(CNc3nc(N4CCOCC4)nc4c(Br)cnn34)[nH]2)cc1F [Example 99, 8-bromo-N-{[5-(3,4-difluorophenyl)-4H-1,2,4-triazol-3-yl]methyl}-2-(morpholin-4-yl)pyrazolo[1,5-a][1,3,5]triazin-4-amine] | 6.7 nM | – | 970 nM |
| Fc1cc(-c2nnc(CNc3nc(N4CCOCC4)nc4c(Br)cnn34)[nH]2)cc(F)c1F [Example 100, 8-bromo-2-(morpholin-4-yl)-N-{[5-(3,4,5-trifluorophenyl)-4H-1,2,4-triazol-3-yl]methyl}pyrazolo[1,5-a][1,3,5]triazin-4-amine] | 10.2 nM | 122 | 820 nM |
| Brc1cnn2c(NCc3nc4ccccc4[nH]3)nc(N3C[C@@H]4C[C@H]3CO4)nc12 [Example 103, N-[(1H-benzimidazol-2-yl)methyl]-8-bromo-2-[(1S,4S)-2-oxa-5-azabicyclo[2.2.1]heptan-5-yl]pyrazolo[1,5-a][1,3,5]triazin-4-amine] | 5.36 nM | 1914 | > 20000 nM |
| c1ccc(-c2cnn3c(NCc4nc5ccccc5[nH]4)nc(N4CCOCC4)nc23)cc1 [Example 104, N-[(1H-benzimidazol-2-yl)methyl]-2-(morpholin-4-yl)-8-phenylpyrazolo[1,5-a][1,3,5]triazin-4-amine] | 15.7 nM | >1272 | > 20000 nM |
| Fc1ccc(-c2cnn3c(NCc4nc5ccccc5[nH]4)nc(N4CCOCC4)nc23)cc1 [Example 106, N-[(1H-benzimidazol-2-yl)methyl]-8-(4-fluorophenyl)-2-(morpholin-4-yl)pyrazolo[1,5-a][1,3,5]triazin-4-amine] | 11.4 nM | >876 | > 20000 nM |
| Clc1cccc(-c2cnn3c(NCc4nc5ccccc5[nH]4)nc(N4CCOCC4)nc23)c1 [Example 107, N-[(1H-benzimidazol-2-yl)methyl]-8-(3-chlorophenyl)-2-(morpholin-4-yl)pyrazolo[1,5-a][1,3,5]triazin-4-amine] | 57.7 nM | >347 | > 20000 nM |
| c1cncc(-c2cnn3c(NCc4nc5ccccc5[nH]4)nc(N4CCOCC4)nc23)c1 [Example 108, N-[(1H-benzimidazol-2-yl)methyl]-2-(morpholin-4-yl)-8-(pyridin-3-yl)pyrazolo[1,5-a][1,3,5]triazin-4-amine] | 5.53 nM | >3617 | > 20000 nM |

These reach a lower DC50 [1]. Values come first.

| DC50 [1] | (IC50 CDK12 high ATP) to (Degradation DC50 CDK12) ratio [1] | IC50 (CDK9/CycT1) | Structure (SMILES) |
| --- | --- | --- | --- |
| 2.49 nM | 429 | 613 nM | Fc1cc(F)cc(-c2nnc(CNc3nc(N4CCOCC4)nc4c(Br)cnn34)[nH]2)c1 [Example 105, 8-bromo-N-{[5-(3,5-difluorophenyl)-4H-1,2,4-triazol-3-yl]methyl}-2-(morpholin-4-yl)pyrazolo[1,5-a][1,3,5]triazin-4-amine] |
| 1.41 nM | 4897 | > 20000 nM | Brc1cnn2c(NCc3nc4ccccc4[nH]3)nc(N3C[C@H]4C[C@@H]3CO4)nc12 [Example 102, N-[(1H-benzimidazol-2-yl)methyl]-8-bromo-2-[(1R,4R)-2-oxa-5-azabicyclo[2.2.1]heptan-5-yl]pyrazolo[1,5-a][1,3,5]triazin-4-amine] |
| 1.22 nM | >1337 | > 1630 nM | c1ccc2[nH]c(CNc3nc(N4CCOCC4)nc4c(-c5ccncc5)cnn34)nc2c1 [Example 111, N-[(1H-benzimidazol-2-yl)methyl]-2-(morpholin-4-yl)-8-(pyridin-4-yl)pyrazolo[1,5-a][1,3,5]triazin-4-amine hydrogen chloride (1/1)] |
| 1.09 nM | 162 | 1790 nM | C[C@@H]1CN(c2nc(NCc3nc4c(F)cccc4[nH]3)n3ncc(Br)c3n2)C[C@H](C)O1 [Example 109, 8-bromo-2-[(2R,6S)-2,6-dimethylmorpholin-4-yl]-N-[(4-fluoro-1H-benzimidazol-2-yl)methyl]pyrazolo[1,5-a][1,3,5]triazin-4-amine] |
| 1.03 nM | 394 | 5470 nM | C[C@@H]1CN(c2nc(NCc3nc4cc(F)ccc4[nH]3)n3ncc(Br)c3n2)C[C@H](C)O1 [Example 110, 8-bromo-2-[(2R,6S)-2,6-dimethylmorpholin-4-yl]-N-[(5-fluoro-1H-benzimidazol-2-yl)methyl]pyrazolo[1,5-a][1,3,5]triazin-4-amine] |
| 0.584 nM | 3856 | > 20000 nM | Fc1ccc2[nH]c(CNc3nc(N4CCOCC4)nc4c(Br)cnn34)nc2c1 [Example 101, 8-bromo-N-[(5-fluoro-1H-benzimidazol-2-yl)methyl]-2-(morpholin-4-yl)pyrazolo[1,5-a][1,3,5]triazin-4-amine] |
| 0.327 nM | 2411 | 13400 nM | Fc1cccc2[nH]c(CNc3nc(N4CCOCC4)nc4c(Br)cnn34)nc12 [Example 97, 8-bromo-N-[(4-fluoro-1H-benzimidazol-2-yl)methyl]-2-(morpholin-4-yl)pyrazolo[1,5-a][1,3,5]triazin-4-amine] |
